Assay [1] concerns the target T1, human adenosine A2A receptor (Homo sapiens, UniProt P29274).
T1 construct: expressed in transfected cells; host or cells: CHO cells, semliki forest virus expression system; washed membranes
In words: [3H]-SCH-58261 binding assay, human adenosine A2A receptor (CHO cell membranes, SPA). Particulars: for Ki: [3H]-SCH-58261 displacement, read-out: hA2a Ki; for Select. A1/A2a: ratio hA1 Ki / hA2a Ki.

Assay [2] concerns the target T2, hA1 (Homo sapiens, UniProt P30542).
T2 sequence (P30542 1-326): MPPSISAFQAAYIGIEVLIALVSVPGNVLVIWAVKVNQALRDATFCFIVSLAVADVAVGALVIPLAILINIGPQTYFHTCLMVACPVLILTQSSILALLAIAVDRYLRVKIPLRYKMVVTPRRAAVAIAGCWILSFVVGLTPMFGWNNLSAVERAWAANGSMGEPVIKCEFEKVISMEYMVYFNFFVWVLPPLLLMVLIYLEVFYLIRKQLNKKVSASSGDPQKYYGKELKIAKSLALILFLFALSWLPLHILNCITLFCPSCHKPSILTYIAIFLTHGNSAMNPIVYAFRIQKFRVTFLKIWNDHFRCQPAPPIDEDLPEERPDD
In words: hA1 receptor affinity (Ki). In kind it is binding. The note with it: list of examples 10-108.

Where [3] appears, read: Ki by Cheng-Prussoff, table of preferred compounds.

The record followed here is patent US6689790B2, “Substituted triazolopyridine compounds” (Hoffmann-La Roche Inc., priority 2001, dated 2004).

Read-outs that look alike come from different tables or passages of the source.

T1 sequence (P29274 whole entry): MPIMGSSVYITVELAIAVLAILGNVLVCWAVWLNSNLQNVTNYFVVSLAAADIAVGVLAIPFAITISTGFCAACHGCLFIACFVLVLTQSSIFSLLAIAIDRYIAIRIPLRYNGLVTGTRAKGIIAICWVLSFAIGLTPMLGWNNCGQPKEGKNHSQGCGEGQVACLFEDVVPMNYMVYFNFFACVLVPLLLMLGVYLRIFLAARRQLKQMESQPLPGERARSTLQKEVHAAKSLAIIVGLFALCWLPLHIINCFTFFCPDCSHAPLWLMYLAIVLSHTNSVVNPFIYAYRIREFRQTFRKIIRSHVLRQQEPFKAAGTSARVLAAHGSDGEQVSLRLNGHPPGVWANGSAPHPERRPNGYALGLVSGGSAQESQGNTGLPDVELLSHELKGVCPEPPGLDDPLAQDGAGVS

With `CC1CCCCN1C(=O)c1cc(N)c2nc(-c3ccco3)nn2c1` (stereo not drawn) [Example 39, (8-Amino-2-furan-2-yl-[1,2,4]triazolo[1,5-a]pyridin-6-yl)-(2-methyl-piperidin-1-yl)-methanone], the values for the Ki in assay [1] (list of examples 10-108) and in assay [2] were 136 nM and 2190 nM, respectively. In assay [1], the “Select. A1/A2a” value is 16.1.
Take `COC[C@H]1CCCN1C(=O)c1cc(N)c2nc(-c3ccco3)nn2c1` [Example 42, (8-Amino-2-furan-2-yl-[1,2,4]triazolo[1,5-a]pyridin-6-yl)-(2-S-methoxymethyl-pyrrolidin-1-yl)-methanone]: the Ki (in general, a dissociation constant, usually derived from enzyme kinetics or from competition with a known ligand) in assay [1] (setting [3]) turned out to be 69.4 nM; in assay [2] it was 5630 nM. Further, the “Select. A1/A2a” value in assay [1] came to 81.1.
As to `NC(=O)[C@H]1CCCN1C(=O)c1cc(N)c2nc(-c3ccco3)nn2c1` [Example 43, 1-(8-Amino-2-furan-2-yl-[1,2,4]triazolo[1,5-a]pyridine-6-carbonyl)-pyrrolidine-2-R-carboxylic acid amide], the Ki in assay [1] (list of examples 10-108) was 138 nM; in assay [2], 2330 nM. For the same molecule, in assay [1], the “Select. A1/A2a” value came out at 16.9.
On the same counts, the results for `CC1CCCN(C(=O)c2cc(N)c3nc(-c4ccco4)nn3c2)C1` (stereo not drawn) [Example 46, (8-Amino-2-furan-2-yl-[1,2,4]triazolo[1,5-a]pyridin-6-yl)-(3-methyl-piperidin-1-yl)-methanone] are 131 nM, 2690 nM and 20.4.
On the same counts, the results for `Nc1cc(C(=O)N(Cc2ccccc2)Cc2ccccc2)cn2nc(-c3ccco3)nc12` [Example 48, 8-Amino-2-furan-2-yl-[1,2,4]triazolo[1,5-a]pyridine-6-carboxylic acid dibenzylamide] are 32.7 nM, 247 nM and 7.5.
Take `Nc1cc(C(=O)N(Cc2ccccc2)Cc2ccccc2)cn2nc(-c3cccs3)nc12` [Example 64, 8-Amino-2-thiophen-2-yl-[1,2,4]triazolo[1,5-a]pyridine-6-carboxylic acid dibenzylamide]: the Ki in assay [1] (setting [3]) came out at 83 nM; in assay [2], 311 nM. In addition, the “Select. A1/A2a” value in assay [1] was found to be 3.7.
On the same counts, the results for `Cc1ccc(-c2nc3c(N)cc(C(=O)N4CCCC4C)cn3n2)o1` (stereo not drawn) [Example 85, [8-Amino-2-(5-methyl-furan-2-yl)-[1,2,4]triazolo[1,5-a]pyridin-6-yl]-(2-methyl-pyrrolidin-1-yl)-methanone] are 75.2 nM, 1360 nM and 18.1.
On the same counts, the results for `Cc1ccc(-c2nc3c(N)cc(C(=O)N4CCCC(C)C4)cn3n2)o1` (stereo not drawn) [Example 88, [8-Amino-2-(5-methyl-furan-2-yl)-[1,2,4]triazolo[1,5-a]pyridin-6-yl]-(3-methyl-piperidin-1-yl)-methanone] are 56.2 nM, 1350 nM and 24.
